Test results published in US20160038454A1, “INTRAVENOUS FORMULATIONS OF […] AS IMMUNOMODULATORS AND […] AGENTS” (priority 2013, published 2016).
“Also recorded” adds a separate entry of the source.

Experiments:
[1] = PG796(MRx102) purity (peak area %) / stability in emulsions; assay type: physicochemical
Description: Pharmaceutical emulsions are typically prepared at neutral to slightly alkaline pH since they are stabilized by electrostatic repulsion between droplets imparted by pH-sensitive anionic surfactants, such as phosphatidyl ethanolamine, free fatty acid salts, and cholate. However, it was possible that this pH range could be suboptimal for the chemical stability of PG796(MRx102). To test this, emulsions were prepared at different pH values ranging from 4 to 8. Buffers were included to control the pH, and the non-pH sensitive surfactant, sodium dodecyl sulfate was used in place of sodium cholate to assure a negative charge even in the low pH emulsions. All of the formulations were reasonably stable for up to 2 weeks at room temperature. […]

[2] = Solubility of PG796(MRx102) in triglyceride oils (GTO vs SBO); assay type: physicochemical; conditions: glyceryl trioctanoate vs soybean oil
[3] = system: human T cell lymphoma (Jurkat) cells; assay: in vitro; assay type: cell-based
Description: Test compounds may be dissolved in DMSO at a concentration of 20 mM. Further dilutions may be done in RPMI1640 medium (GIBCO, Rockville, Md.) supplemented with 10% Fetal Calf Serum (HyClone Laboratories, Logan, Utah).
Cytotoxicity of the compounds is determined in a standard MTT assay using Cell Proliferation Kit I (#1 465 007, Roche Diagnostics, Mannheim, Germany). Briefly, human T cell lymphoma (Jurkat) cells (4×10^5 per well) are cultured for 24 h, in 96-well tissue culture plates, in the presence of serial three-fold dilutions of test compounds or medium containing the same concentration of DMSO as in the test samples at each dilution point. The cultures are then supplemented with 10 μl/well MTT reagent for 4 h and then with 0.1 ml/well solubilizing reagent for an additional 16 h. Optical density at 570 nm (OD570) is measured on a ThermoScan microplate reader (Molecular Devices, Menlo Park, Calif.).

[4] = system: MV4-11 cells; assay: Synergy with AML drugs in vitro; assay type: cell-based; conditions: MV4-11 cells in vitro
Excerpt: Another consequence of XPB binding is the inhibition of nucleotide excision repair.

CC(C)[C@]12O[C@H]1[C@@H]1O[C@]13[C@]1(O[C@H]1C[C@H]1c4c(C(=O)c5ccccc5)oc(OC(=O)c5ccccc5)c4CC[C@@]13C)[C@@H]2O [PG796, 18-deoxo-19-dehydro-18-benzoyloxy-19-benzoyl triptolide]
PG796 (MRx102) Purity ([1]; emulsion target pH 4.0 (acetate), 0 hr): 98.9 peak area % | PG796 (MRx102) Purity ([1]; emulsion target pH 4.0 (acetate), 1 wk): 98.9 peak area % | PG796 (MRx102) Purity ([1]; emulsion target pH 4.0 (acetate), 2 wk): 97.2 peak area % | PG796 (MRx102) Purity ([1]; emulsion target pH 4.0 (acetate), 24 hr): 99.3 peak area % | PG796 (MRx102) Purity ([1]; emulsion target pH 5.0 (acetate), 0 hr): 99.2 peak area % | PG796 (MRx102) Purity ([1]; emulsion target pH 5.0 (acetate), 1 wk): 99.1 peak area % | PG796 (MRx102) Purity ([1]; emulsion target pH 5.0 (acetate), 2 wk): 98.3 peak area % | PG796 (MRx102) Purity ([1]; emulsion target pH 5.0 (acetate), 24 hr): 99.4 peak area % | PG796 (MRx102) Purity ([1]; emulsion target pH 6.0 (histidine), 0 hr): 99.2 peak area % | PG796 (MRx102) Purity ([1]; emulsion target pH 6.0 (histidine), 1 wk): 98.9 peak area % | PG796 (MRx102) Purity ([1]; emulsion target pH 6.0 (histidine), 2 wk): 98.8 peak area % | PG796 (MRx102) Purity ([1]; emulsion target pH 6.0 (histidine), 24 hr): 99.2 peak area % | PG796 (MRx102) Purity ([1]; emulsion target pH 7.0 (phosphate), 0 hr): 99.4 peak area % | PG796 (MRx102) Purity ([1]; emulsion target pH 7.0 (phosphate), 1 wk): 98.8 peak area % | PG796 (MRx102) Purity ([1]; emulsion target pH 7.0 (phosphate), 2 wk): 91.0 peak area % | PG796 (MRx102) Purity ([1]; emulsion target pH 7.0 (phosphate), 24 hr): 99.1 peak area % | PG796 (MRx102) Purity ([1]; emulsion target pH 8.0 (Tris), 0 hr): 98.7 peak area % | PG796 (MRx102) Purity ([1]; emulsion target pH 8.0 (Tris), 1 wk): 99.1 peak area % | PG796 (MRx102) Purity ([1]; emulsion target pH 8.0 (Tris), 2 wk): 98.3 peak area % | PG796 (MRx102) Purity ([1]; emulsion target pH 8.0 (Tris), 24 hr): 99.2 peak area % | pH dependence of stability of PG796(MRx102) in the emulsion ([1]; pH 4 to 8): not pH-dependent | solubility in GTO relative to SBO [2]: about 3.4 fold | cytotoxic activity in MTT assay (in words) ([3]; Jurkat cells, comparison with triptolide or PG490-88): cytotoxic; also recorded: higher level of activity | activity in MTT assay after incubation in human serum vs mouse serum ([3]; incubated in human serum compared with mouse serum): high, and essentially equivalent, activity | synergy with cytarabine [4]: synergy was demonstrated | synergy with idarubicin [4]: synergy was demonstrated
